How the values were obtained:
Format in all cases: in vivo
HBV genotype C [1] = test: Serum HBeAg in HBV-infected PXB chimeric mouse model
Method: (§1) The in vivo effect of the anti-HBV shmiR or shRNA-expressing AAV particles (as illustrated in FIG. 5) was determined in a PXB chimeric mouse model infected de novo with HBV inoculum. Inhibition of various HBV parameters was assessed: (i) expression of HBV viral transcripts, (ii) extracellular HbsAg, HBcAg and HBeAg, (iii) extracellular and intracellular HBV DNA, and (iv) formation of cccDNA.
(§2) Chimeric PXB mice (PXB-mice®) were obtained from PhoenixBio. All mice were housed individually at 23±5° C. and a humidity of 55±25% humidity, exposed to 12 hours-light/dark cycles and fed and watered ad libitum throughout the experiment. […] To determine baseline HBV infection, blood was taken from mice at days −28, −21, −14 and −7 (i.e., 0, 7, 14 and 21 days post inoculation, respectively), from which human albumin (h-Alb) concentration and serum concentrations of HBV DNA, HBsAg and HBeAg were determined. These permit detection of liver damage in test animals—no adverse reactions were detected.
(§3) Serum HBsAg and HBeAg concentrations were determined using ChemiLuminescence ImmunoAssay (CLIA) e.g., as developed by Abbott ([…]® SYSTEM). […]
(§4) Following administration of the treatment (day 0), animals were then incubated for a further 91 days. […] HBeAg levels were measured every other week through Day 70 and then weekly thereafter until the conclusion of the 91 day experiment.

HBV genotype C [2] = test: Intracellular (liver) HBV DNA by quantitative PCR in PXB chimeric mouse model; conditions: entecavir or pegylated interferon alone; FIG. 12, left panel
HBV genotype C [3] = test: Serum HBsAg in HBV-infected PXB chimeric mouse model; conditions: PXB mice, 91 day study; FIG. 8
Method: as §1, §2, §3, §4

HBV viral transcripts = test: Liver HBV RNA levels by RT-QPCR in PXB chimeric mouse model; conditions: FIG. 11
From the text: After the completion of blood sampling on Day 91, all the surviving animals were kept under isoflurane anesthesia and sacrificed by cardiac puncture and exsanguination. Once sacrificed, whole livers were harvested from mice and weighed. A slice of liver of 3 to 5 mm in thickness was obtained from left lateral lobe and cut into cubes approximately 1 to 2 mm on a side. These liver cubes were transferred into a labelled tube and immersed in RNAlater® solution (Ambion, Thermo Fisher Scientific Inc., Waltham, Mass., USA) as quickly as possible. The liver samples were incubated in ≥5 volumes of RNAlater® overnight at 4° C. to allow the solution to penetrate the tissue. After the incubation, the RNAlater® solution was removed and the liver pieces were stored at −80° C. for subsequent quantification of the various hepatic HBV DNA and RNAs as well as expression levels of recombinant AAV derived shRNA or shmiR RNAs.
Using primer/probe sets that are located near each of the RNAi-induced cleavage sites, the levels of HBV RNA was assessed by RT-QPCR (FIG. 11).

HBV cccDNA = test: Liver HBV cccDNA by real-time PCR in PXB chimeric mouse model; conditions: ETV; FIG. 12, right panel
Method: HBV-infected mice treated with saline served as the negative controls. […] For the anti-HBV ddRNAi treatment groups, ssAAV8-HBV-shRNAx3-v1, scAAV8-HBV-shRNAx3-v1 or ssAAV8-HBV-shmiRx3-v1 was administered once at a dose of 2×10E+13 vg/kg by a low pressure tail vein injection at Day 0. Co-treated animals started daily ETV at Day 1 or were dosed the first time with PEG-IFN on Day 4
After the completion of blood sampling on Day 91, all the surviving animals were kept under isoflurane anesthesia and sacrificed by cardiac puncture and exsanguination. Once sacrificed, whole livers were harvested from mice and weighed. A slice of liver of 3 to 5 mm in thickness was obtained from left lateral lobe and cut into cubes approximately 1 to 2 mm on a side. […] After the incubation, the RNAlater® solution was removed and the liver pieces were stored at −80° C. for subsequent quantification of the various hepatic HBV DNA and RNAs as well as expression levels of recombinant AAV derived shRNA or shmiR RNAs.
To determine the level of hepatic HBV DNA following treatment, HBV DNA was extracted from frozen RNAlater®-preserved liver tissue using the DNeasy® Blood & Tissue Kits (Qiagen K. K., Tokyo, Japan). The DNA was dissolved in 200 μL nuclease-free water, after which the concentration of the DNA solution was determined using BioPhotometer 6131 (Eppendorf Co., Ltd., Tokyo, Japan). […]

HBV genotype C [4] = test: Serum HBV DNA in HBV-infected PXB chimeric mouse model; conditions: treatment arm of daily ETV only; FIG. 7
Method: as §1, §2
Remaining whole blood was centrifuged to separate serum for HBV DNA quantification, HbsAg, HBcAg and HBeAg analysis. […] Synthetic HBV DNA was used to determine the concentration of the HBV DNA standard which was then used in quantification of the serum HBV DNA level. […]

C=C1[C@H](CO)[C@@H](O)C[C@@H]1n1cnc2c(=O)[nH]c(N)nc21 [entecavir]
drop in HBeAg levels (HBV genotype C [1]; PXB mice, 91 day study, FIG. 9): 0.37 log | drop in HBeAg levels (HBV genotype C [1]; entecavir only): 0.37 log | drop in intracellular DNA levels (HBV genotype C [2]): 2 logs | drop in HBsAg levels (HBV genotype C [3]): 0.46 log | reduction of HBV RNA levels / HBV transcripts (HBV viral transcripts; monotherapy, through 13 weeks of treatment, RT-QPCR): ~50% | HBV RNA levels (liver) (HBV viral transcripts; transcripts corresponding to shmiR-6, shmiR-15 and shmiR-12): only modestly reduced | reduction of cccDNA (HBV cccDNA): slightly more than a one log reduction | drop in serum HBV DNA levels (HBV genotype C [4]): 2.63 log
